In the experiment the target is T1, Stp1/Stp4/Stp3 subcomplex (Mycosarcoma maydis, UniProt A0A0D1C5E3+A0A0D1CU07+A0A0D1EAN2).
T1 sequence (A0A0D1CU07 29-515): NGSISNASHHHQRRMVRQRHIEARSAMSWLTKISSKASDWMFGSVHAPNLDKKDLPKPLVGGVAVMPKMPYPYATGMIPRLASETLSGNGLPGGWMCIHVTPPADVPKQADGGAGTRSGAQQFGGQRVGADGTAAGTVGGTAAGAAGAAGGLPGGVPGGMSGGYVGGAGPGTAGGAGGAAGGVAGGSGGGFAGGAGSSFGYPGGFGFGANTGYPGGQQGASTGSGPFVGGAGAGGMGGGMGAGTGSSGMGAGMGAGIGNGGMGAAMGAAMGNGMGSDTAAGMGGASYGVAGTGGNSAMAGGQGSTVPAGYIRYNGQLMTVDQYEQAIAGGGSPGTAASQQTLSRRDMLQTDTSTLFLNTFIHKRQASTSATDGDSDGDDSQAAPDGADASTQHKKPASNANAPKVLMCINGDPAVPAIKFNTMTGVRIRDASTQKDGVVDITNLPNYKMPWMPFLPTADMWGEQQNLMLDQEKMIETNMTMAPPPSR
T1 sequence (A0A0D1C5E3 24-129): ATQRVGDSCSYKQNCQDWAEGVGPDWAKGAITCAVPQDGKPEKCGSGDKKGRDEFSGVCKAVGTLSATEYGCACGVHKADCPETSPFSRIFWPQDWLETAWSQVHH
T1 sequence (A0A0D1EAN2 25-327): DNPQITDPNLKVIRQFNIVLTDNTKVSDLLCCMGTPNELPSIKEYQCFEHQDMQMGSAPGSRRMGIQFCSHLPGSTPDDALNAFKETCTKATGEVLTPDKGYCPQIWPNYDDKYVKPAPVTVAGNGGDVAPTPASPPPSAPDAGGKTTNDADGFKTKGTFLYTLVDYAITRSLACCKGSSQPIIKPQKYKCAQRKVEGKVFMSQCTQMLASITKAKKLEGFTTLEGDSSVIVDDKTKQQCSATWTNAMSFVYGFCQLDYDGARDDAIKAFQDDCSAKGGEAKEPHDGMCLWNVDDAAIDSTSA
As to the kind of experiment: Alamar Blue viability assay in S. cerevisiae 2-hybrid strain NL73 (viability depends on Stp complex formation). The experiment is classed as cell-based, U. maydis. The text has this: To develop a screening platform based on Stp complex formation, a Saccharomyces cerevisiae 2-hybrid system was used. […] After co-transformation, reporter gene transcription is activated only if the two fusion proteins interact in the yeast nucleus. Moreover, the S. cerevisiae strain AH109 harbours the reporter genes ADE2 and HIS3, which encode for two enzymes that are crucial for adenine (Ade) and histidine (His) biosynthesis and thereby enable nutritional selection as a read-out for the interaction between proteins. In the following experiments, growth on high-stringency synthetic defined (SD) medium (SD -Leu -Trp -Ade -His) was used to identify if the complex members interact between them causing expression of ADE2 and HIS3. Additionally, strains were also grown on low-stringency medium (SD -Leu -Trp) to confirm their viability. […] All experiments were done with three independent transformants to exclude false positives due to spontaneous mutations.
The S. cerevisiae strain AH109 from Clontech (Saint-Germain-en-Laye, France) is auxotrophic for tryptophan, leucine, adenine and histidine. In addition, lacz is under control of the MEL1 UAS to be used as readout for quantitative β-galactosidase assays.
The resulting test strain NL73 (AD-Stp4/BD-Stp1/myc-Stp3) expresses the Stp1/Stp4/Stp3 subcomplex. NL73 carries the following three plasmids: pGBKT7-stp1: pGBKT7 vector expressing proteins fused to the GAL4 DNA binding domain (DNA-BD). pGBKT7 also contains the T7 promoter, a c-Myc epitope tag, and a MCS. The vector carries a Kanamycin resistance gene (Kanr) for selection in E. coli and the TRP1 nutritional marker for selection in yeast. pGAD-stp4: pGADT7 vector expressing proteins fused to a GAL4 activation domain (AD). The GAL4 AD fusion contains an N-terminal nuclear localization signal that targets the protein to the yeast nucleus, and a HA Tag, located between the GAL4 AD and the protein of interest. The vector carries an ampicillin resistance gene (Ampr) for selection in E. coli and a LEU2 nutritional marker for selection in yeast. pYEA-stp3-myc: pYEA vector expressing proteins under the control of the phosphoglycerate kinase promoter. The vector carries an ampicillin resistance gene (Ampr) for selection in E. coli and an ADE2 nutritional marker for selection in yeast. As control strain, NL70 containing empty vectors was generated (AH109Δabc9 pGAD::LEU2 pGBK::TRP1 pYEA::ADE2).
After that, 25 µl of NL73 cell suspension were dispensed into the assay plates using Multidrop Combi (Thermofisher Scientific) giving a final screening concentration of 10 µM. One column of the assay plate was filled with 25 µl of NL70 control strain cell suspension as negative control. Plates were sealed with Breathe-Easy sealing membrane (Sigma, Z380059), lidded and incubated in a humid chamber over night at 30°C and 140 rpm in an HT Multitron Pro (Infors). […] For the viability assay, the alamar Blue HS Cell Viability reagent (Invitrogen, #A50101) was pre-diluted using an equal amount of dVE-H2O and 5 µl of diluted Alamar Blue were added to the screening plates using Multidrop Combi. The plates were sealed again and incubated for 4 h at room temperature, unlidded. […] Screening data was normalized to DMSO-treated NL73 cells (that received DMSO in the same concentration as in samples where compounds dissolved in DMSO were added) being 100% and DMSO-treated NL70 cells representing 0% viability and analyzed with Quattro Software Suite (Quattro Research GmbH).
For orientation: Resazurin is reduced to fluorescent resorufin, in cell work by metabolically active cells.

The mark [1] stands for this setting: inhibitory activity on NL73 viability, Table 6, read-out: IC50.
Where [2] appears, read: Alamar Blue assay, Table 8, read-out: IC50.

IC50 data for 6 compounds are collected here from EP4039094A1, “NOVEL ANTIFUNGAL COMPOUNDS” (Max-Planck-Gesellschaft zur Förderung der Wissenschaften …, priority 2021, dated 2022).

Like-named read-outs stand apart in the source and are kept apart here.

Broadly, the IC50 is the concentration that gives 50% inhibition. Take `O=S(=O)(Nc1cnc2[nH]ncc2c1)c1cc(F)ccc1F` [Ref2-B, reference compound]: the IC50 entry (Alamar Blue assay, Table 8) is “inactive”.
For the compound `CC(C)n1ncc2cc(NS(C)(=O)=O)cnc21` [Ref1-B, reference compound], under “Alamar Blue assay, Table 8”, the IC50 result was “inactive”.
Consider `CCn1c2c(c(SCc3cccc(C)c3)nc1=O)CCC2` [Compound 2-C], for which the IC50 under setting [1] stood at 6.2 µM.
Consider `CCCn1c2c(c(SCc3ccccc3F)nc1=O)CCC2` [Compound 3-C], for which the IC50 under setting [1] worked out at 6.4 µM.
For `O=S(=O)(Nc1cnc2c(cnn2C2CCCCC2)c1)c1cc(F)ccc1F` [Compound 3-B], the IC50 under setting [2] turned out to be 2.2 µM.
Same read-out and setting: for `Cn1ncc2cc(NS(=O)(=O)c3cc(F)ccc3F)cnc21` [Compound 4-B] the value was 10.2 µM.
